Paper PMC11432405, “Development of Novel Alaninamide Derivatives with Anticonvulsant Activity and Favorable Safety Profiles in Animal Models” (International Journal of Molecular Sciences, 2024)
Like-named read-outs stand apart in the source and are kept apart here.

What was measured:
[1] = test system: 6 Hz (32 mA) seizures; experiment: 6 Hz (32 mA) psychomotor seizure model; conditions: for ED50 / responders at 100 mg/kg: Mus musculus, ip; for ED50 / responders at 100 mg/kg / protection (efficacy) in the 6 Hz (32 mA) screening: 0.5 h; for ED50: read-out: ED50 6 Hz (32 mA), mice i.p., TPE 0.5 h, 95% confidence interval in parentheses; for responders at 100 mg/kg: read-out: protection (efficacy) in the 6 Hz (32 mA) screening; for protection (efficacy) in the 6 Hz (32 mA) screening / 6 Hz (32 mA) test: number of mice protected / number of mice tested: mice i.p.; for protection (efficacy) in the 6 Hz (32 mA) screening: 100 mg/kg, four mice; for 6 Hz (32 mA) test: number of mice protected / number of mice tested: dose of 100 mg/kg, pretreatment time 0.5 h;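 as to all read-outs here: adult male albino Swiss CD-1 mice, each used once, with compounds suspended in 1% Tween 80 in water as vehicle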
[2] = target: T1, human recombinant MAO-B (Homo sapiens, UniProt P27338); experiment: fluorometric monoamine oxidase B inhibition assay; format: biochemical; conditions: for inhibition at 1 µM: read-out: % inhibition MAO-B (1 µM), mean of two independent experiments; for % inhibition MAO-B (1 µM): mean of two independent experiments
T1 construct: purchased Sigma Aldrich
T1 sequence (P27338 1-520): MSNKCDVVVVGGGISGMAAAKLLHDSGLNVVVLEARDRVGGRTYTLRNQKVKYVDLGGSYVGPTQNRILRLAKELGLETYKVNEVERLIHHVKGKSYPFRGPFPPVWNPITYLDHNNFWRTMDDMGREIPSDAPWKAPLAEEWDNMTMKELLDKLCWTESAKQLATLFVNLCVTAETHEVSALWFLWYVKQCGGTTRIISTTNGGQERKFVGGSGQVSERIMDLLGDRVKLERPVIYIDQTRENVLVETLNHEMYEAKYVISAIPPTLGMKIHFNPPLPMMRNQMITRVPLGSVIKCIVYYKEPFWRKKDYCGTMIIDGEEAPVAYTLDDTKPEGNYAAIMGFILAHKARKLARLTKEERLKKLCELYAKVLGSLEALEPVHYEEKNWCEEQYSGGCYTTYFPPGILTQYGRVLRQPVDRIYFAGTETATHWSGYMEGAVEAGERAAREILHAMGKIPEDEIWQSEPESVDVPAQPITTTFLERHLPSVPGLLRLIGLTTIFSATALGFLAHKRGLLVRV

[3] = rotarod test (acute neurological toxicity, motor coordination); format: in vivo; conditions: male, CD-1 (albino Swiss), mouse, in vivo, ip, mice i.p.
Procedure: The protective indexes (PIs) were then calculated as the ratio of TD50 to ED50 (PI = TD50/ED50), providing an assessment of the therapeutic window for each compound.

[4] = test system: maximal electroshock (MES) seizures; experiment: maximal electroshock seizure (MES) test; format: in vivo, mice; conditions: mice i.p.; for responders at 100 mg/kg / ED50: Mus musculus, ip; for ED50: TPE 0.5 h, 95% confidence interval in parentheses
From the text: Epilepsy is a multifaceted disorder with often unclear etiology, making it challenging to pinpoint a specific receptor or transporter as the definitive target. Consequently, the discovery of ASMs deviates from the traditional drug development pathway, which typically involves designing a new molecule, docking it with a specific biological target, and performing chemical synthesis, followed by in vitro assays. Instead, numerous animal seizure models, which mirror various types of human epileptic seizures, are initially employed in the process of new ASM discovery. This approach has been instrumental in the identification and introduction into clinical practice of all currently used ASMs and continues to be a cornerstone in the preclinical development of new anticonvulsants. The primary justification for prioritizing in vivo screening over in vitro binding and functional studies is the complex and often not fully elucidated mechanisms of action of known ASMs. This approach also facilitates the discovery of compounds with novel, previously undefined pharmacodynamic properties. In light of this, we evaluated all compounds obtained in the current studies using the MES test, which remains one of the most valuable preclinical screening models for tonic-clonic seizures, as well as partial convulsions with or without secondary generalization in humans. This test allows for a comprehensive assessment of the anticonvulsant efficacy of new ASM candidates and is considered highly relevant for predicting their therapeutic efficacy in human epilepsy. The MES test was carried out in mice following the intraperitoneal (i.p.) administration of a screening dose of 100 mg/kg in a group consisting of four animals. The efficacy of the compounds synthesized was evaluated at 0.5 h pretreatment time.
Fresh solutions were prepared daily for each experimentation session.
Each group consisted of six animals.

[5] = 100 mg/kg, 0.5 h, four mice, read-out: protection (efficacy) in the MES screening
[6] = dose of 100 mg/kg, pretreatment time 0.5 h, read-out: MES test: number of mice protected / number of mice tested (converted)
[7] = dose of 100 mg/kg, pretreatment time 0.5 h

SMILES | ED50 [1] | responders at 100 mg/kg [1] | inhibition at 1 µM [2] | melting point | TD50 at 0.5 h [3] | responders at 100 mg/kg [4, 5] | ED50 [4] | responders at 100 mg/kg [4, 6] | protection (efficacy) in the 6 Hz (32 mA) screening [1] | % inhibition MAO-B (1 µM) [2] | protection (efficacy) in the MES screening ([4]; 100 mg/kg, 0.5 h, four mice) | 6 Hz (32 mA) test: number of mice protected / number of mice tested [1] | MES test: number of mice protected / number of mice tested [4, 7]
Cc1ccccc1COc1ccc(CNC(=O)C(C)N2C(=O)CCC2=O)cc1 (stereo not shown) [Compound 18, 2-(2,5-dioxopyrrolidin-1-yl)-N-(4-((2-methylbenzyl)oxy)benzyl)propanamide] | 57.7 mg/kg | 75% | 0% | 126.1 to 126.8 °C | > 300 mg/kg | 75% | 89.2 mg/kg | 75% |  |  |  |  | 
CC(C(=O)NCc1ccc(OCc2ccccc2)cc1)N1CCCC1=O (stereo not shown) [Compound 36, N-(4-(benzyloxy)benzyl)-2-(2-oxopyrrolidin-1-yl)propanamide] |  | 25% | 0% | 110.5 to 110.9 °C |  |  |  | 100% |  |  |  |  | 
CC(C(=O)NCc1ccc(OCc2ccc(F)cc2)cc1)N1C(=O)CCC1=O (stereo not shown) [Compound 8, 2-(2,5-dioxopyrrolidin-1-yl)-N-(4-((4-fluorobenzyl)oxy)benzyl)propanamide] |  |  |  |  |  |  |  |  | 50% | 0% | 50% |  | 
CC(C(=O)NCc1ccc(OCc2ccccc2C(F)(F)F)cc1)N1CCCC1=O (stereo not shown) [Compound 37, 2-(2-oxopyrrolidin-1-yl)-N-(4-((2-(trifluoromethyl)benzyl)oxy)benzyl)propanamide] |  | 50% | 0% | 121.8 to 122.5 °C |  |  |  | 100% |  |  |  |  | 
CC(C(=O)NCc1ccc(OCc2ccccc2F)cc1)N1C(=O)CCC1=O (stereo not shown) [Compound 6, 2-(2,5-dioxopyrrolidin-1-yl)-N-(4-((2-fluorobenzyl)oxy)benzyl)propanamide] |  |  |  |  |  |  |  |  | 100% | 0% | 100% | 4/4 | 4/4
CC(C(=O)NCc1ccc(OCc2ccc(Cl)cc2)cc1)N1C(=O)CCC1=O (stereo not shown) [Compound 11, N-(4-((4-chlorobenzyl)oxy)benzyl)-2-(2,5-dioxopyrrolidin-1-yl)propanamide] |  |  |  |  |  |  |  |  | 25% | 0% | ≤ 25% | 1/4 | 0/4
Cc1ccc(COc2ccc(CNC(=O)C(C)N3C(=O)CCC3=O)cc2)cc1 (stereo not shown) [Compound 20, 2-(2,5-dioxopyrrolidin-1-yl)-N-(4-((4-methylbenzyl)oxy)benzyl)propanamide] |  |  | 0% |  |  | ≤ 25% |  | 0% |  |  |  |  | 
CC(C(=O)NCc1ccc(OCc2cccc(OC(F)(F)F)c2)cc1)N1C(=O)CCC1=O (stereo not shown) [Compound 16, 2-(2,5-dioxopyrrolidin-1-yl)-N-(4-((3-(trifluoromethoxy)benzyl)oxy)benzyl)propanamide] | 63 mg/kg | 50% | 31% | 112.2 to 112.9 °C | > 300 mg/kg | 100% | 40.5 mg/kg | 100% |  |  |  |  | 
CC(C(=O)NCc1cccc(OCc2ccccc2)c1)N1C(=O)CCC1=O (stereo not shown) [Compound 22, N-(3-(benzyloxy)benzyl)-2-(2,5-dioxopyrrolidin-1-yl)propanamide] |  |  | 0% | 105.3 to 106.1 °C |  | ≤ 25% |  | 25% |  |  |  |  | 
CC(C(=O)NCc1ccc(OCc2ccccc2C(F)(F)F)cc1)N1C(=O)CCC1=O (stereo not shown) [Compound 12, 2-(2,5-dioxopyrrolidin-1-yl)-N-(4-((2-(trifluoromethyl)benzyl)oxy)benzyl)propanamide] | 52.7 mg/kg | 75% | 0% | 122.9 to 123.4 °C | > 300 mg/kg | 100% | 46.2 mg/kg | 100% |  |  |  |  | 
CC(C(=O)NCc1ccc(OCc2cccc(C(F)(F)F)c2)cc1)N1C(=O)CCC1=O (stereo not shown) [Compound 13, 2-(2,5-dioxopyrrolidin-1-yl)-N-(4-((3-(trifluoromethyl)benzyl)oxy)benzyl)propanamide] | 67.9 mg/kg | 100% | 0% |  | > 300 mg/kg | 100% | 69.7 mg/kg | 100% |  |  |  |  | 
Cc1cccc(COc2ccc(CNC(=O)C(C)N3C(=O)CCC3=O)cc2)c1 (stereo not shown) [Compound 19, 2-(2,5-dioxopyrrolidin-1-yl)-N-(4-((3-methylbenzyl)oxy)benzyl)propanamide] |  | 25% | 0% |  |  | ≤ 25% |  | 25% |  |  |  |  | 
CC(C(=O)NCc1ccc(OCc2ccccc2OC(F)(F)F)cc1)N1C(=O)CCC1=O (stereo not shown) [Compound 15, 2-(2,5-dioxopyrrolidin-1-yl)-N-(4-((2-(trifluoromethoxy)benzyl)oxy)benzyl)propanamide] |  | 25% | 0% | 110.5 to 111.2 °C |  | 50% |  | 50% |  |  |  |  | 
CC(C(=O)NCc1ccccc1OCc1ccccc1)N1C(=O)CCC1=O (stereo not shown) [Compound 23, N-(2-(benzyloxy)benzyl)-2-(2,5-dioxopyrrolidin-1-yl)propanamide] |  |  | 0% |  |  | ≤ 25% |  | 25% |  |  |  |  | 
CC(C)(C(=O)NCc1ccc(OCc2ccccc2)cc1)N1C(=O)CCC1=O [Compound 21, N-(4-(benzyloxy)benzyl)-2-(2,5-dioxopyrrolidin-1-yl)-2-methylpropanamide] |  |  | 0% | 170.3 to 171.2 °C |  | ≤ 25% |  | 25% |  |  |  |  | 
CC(C(=O)NCc1ccc(OCc2ccc(C(F)(F)F)cc2)cc1)N1C(=O)CCC1=O (stereo not shown) [Compound 14, 2-(2,5-dioxopyrrolidin-1-yl)-N-(4-((4-(trifluoromethyl)benzyl)oxy)benzyl)propanamide] |  | 50% | 0% |  |  | 50% |  | 50% |  |  |  |  | 
